Test results from patent US11298333B1, “Methods of reducing the risk of cardiovascular events in a subject” (Amarin Pharmaceuticals Ireland Limited, priority 2018, dated 2022).

Columns and labels:
[1] = test system: statin-treated patients with a history of atherosclerosis or diabetes; experiment: REDUCE-IT Example 3: total (first and subsequent) ischemic events (negative binomial, Andersen-Gill, Wei-Lin-Weissfeld Li-Lagakos, joint frailty; reduced and full dataset); format: in vivo, human; design: Relative risk reduction in total (first and subsequent) ischemic events for the primary composite endpoint / First events reduced by / Second events reduced by / Third events reduced by / Fourth or more events reduced by: concentration or dose not given beside the values
From the text: The following study was a multi-center, placebo-controlled clinical trial the details of which are described above in Example 1, the REDUCE-IT design. […] The main outcomes were total primary composite endpoint events defined as cardiovascular death, nonfatal myocardial infarction, nonfatal stroke, coronary revascularization, or hospitalization for unstable angina and total key secondary composite endpoint events defined as cardiovascular death, nonfatal myocardial infarction, or nonfatal stroke. In the context of this study, total events refer to any first event as well as any subsequent event. Differences in total events were determined using other statistical models, including Andersen-Gill, Wei-Lin-Weisfeld (Li and Lagakos), both pre-specified, and a post hoc and joint-frailty analysis.
For the present prespecified analysis, the primary outcome was the total of first plus subsequent ischemic events consisting of the composite of cardiovascular death, nonfatal myocardial infarction, nonfatal stroke, coronary revascularization, or hospitalization for unstable angina. […] Exploratory analyses of the total of first and subsequent events were also performed for the key secondary composite endpoint.
Baseline characteristics were compared between treatment groups using the chi-squared test for categorical variables and the Wilcoxon rank sum test for continuous variables. There are several methods for analyzing first and subsequent (recurrent) event data. As a pre-specified statistical method, a negative binomial regression was used to calculate rates and rate ratios for total cardiovascular events, which accounts for the variability in each patient's risk of events. As pre-specified supportive analyses, the modified Wei-Lin-Weissfeld method (Li and Lagakos modification) was used to calculate hazard ratios (HRs) for the time to the first event, second event, or third event. An additional pre-specified analysis, the Andersen-Gill model using a Cox proportional-hazard with the counting-process formulation was performed to model the total events. In addition, in order to account for informative censoring due to cardiovascular death, the HR for total non-fatal events was calculated using a joint frailty model (See Rondeau V. Joint frailty models for recurring events and death using maximum penalized likelihood estimation: application on cancer events. Biostatistics. 2007; 8:708-21). The joint frailty model simultaneously estimates hazard functions for non-fatal and fatal CV events and takes into account the fact that patients who are prone to have nonfatal events have an elevated risk of a cardiovascular death. The application of the joint frailty model used a gamma distribution for the frailty term.
Statistical analyses using the full adjudicated endpoint events dataset without exclusions using this bundling approach were also determined.

[2] = test system: hypertriglyceridemic patients with cardiovascular disease or at high risk for cardiovascular disease; conditions: in vivo
Experimental: Specification of Variables and Procedures: Safety assessments included adverse events, clinical laboratory measurements (chemistry, hematology), 12-lead ECGs, vital signs (systolic and diastolic blood pressure, heart rate, respiratory rate, and body temperature), weight, waist circumference, and physical examinations as per Study Procedures in Table 1. […] All laboratory test results were evaluated by the investigator as to their clinical significance. Any observations at physical examinations or laboratory values considered by the investigator to be clinically significant were considered an adverse event.
An adverse event can therefore be any unfavorable and/or unintended sign (including an abnormal laboratory finding), symptom, or disease temporally associated with the use of an investigational medication product, whether or not related to the investigational medication product. All adverse events, including observed or volunteered problems, complaints, or symptoms, were recorded on the appropriate CRF. Each adverse event was evaluated for duration, intensity, and causal relationship with the study medication or other factors.
Serious Adverse Events: A serious adverse event (SAE) is defined as an adverse event that meets any of the following criteria: • Results in death; • Is life-threatening—The term “life-threatening” in the definition of “serious” refers to an event in which the patient was at risk of death at the time of the event. […] Important medical events that may not result in death, be life threatening, or require hospitalization were considered an SAE when, based upon appropriate medical judgment, they may have jeopardized the patient and may have required medical or surgical intervention to prevent one of the outcomes listed above.
Adverse Events of Special Interest: Bleeding-related adverse events, glucose control (fasting blood glucose and HbA1c), and indicators of hepatic disorders (e.g., ALT or AST increases >3×ULN, total bilirubin increases of ≥2×ULN) were summarized separately and compared between treatment groups.
Analysis of Safety: All analyses of safety were conducted on the safety population, which was defined as all randomized patients. The safety assessment was based on the frequency of adverse events, physical exams, vital signs and safety laboratory tests. AEs with new onset during the study between the initiation of study drug and 30 days after the last dose of study drug for each patient was considered treatment-emergent (TEAEs). This included any AE with onset prior to initiation of study drug and increased severity after the treatment initiation.
This included overall incidence rates (regardless of severity and relationship to study drug), and incidence rates for moderate or severe adverse events. A summary of SAEs and adverse events leading to early discontinuation (for ≥30 days) were presented through data listings. Patients who restarted study drug were included in the summary of AEs leading to discontinuation. Safety laboratory tests and vital signs were summarized by post-treatment change from baseline for each of the parameters using descriptive statistics by treatment group. Those patients with significant laboratory abnormalities were identified in data listings. Additional safety parameters were summarized in data listings.

[3] = REDUCE-IT: blood pressure, repeated-measurements analysis of change from baseline; format: in vivo, human; conditions: 4 g per day; ITT; mixed effects model; exploratory
Experimental: Blood pressure was measured using a standardized process: • Patient sat for […] with feet flat on the floor and measurement arm supported so that the midpoint of the manometer cuff was at heart level; and • Used a mercury sphygmomanometer or automatic blood pressure device with an appropriately sized cuff with the bladder centered over the brachial artery.
Blood pressure was recorded to the nearest 2 mmHg mark on the manometer or to the nearest whole number on an automatic device. A blood pressure reading was repeated 1 to 2 minutes later, and the second reading recorded to the nearest 2 mmHg mark.
It is contemplated that a number of factors contribute to the significant reduction in the cardiovascular risk. Without intending to be bound by any particular theory, one of the contributing factors might relate to the dose and formulation of the icosapent ethyl administered to the patients, in marked contrast to previous studies of omega-3 fatty acid studies. An additional contributing factor could relate to the patients' blood pressure. […] These differences appear to be modest, but it is contemplated, that they might contribute to the benefits of icosapent ethyl. […]

[4] = Andersen-Gill (I), full dataset, adjusted for stratification factors, vs placebo
[5] = Andersen-Gill (I), full dataset, vs placebo
[6] = Andersen-Gill (I), reduced dataset, adjusted for stratification factors, vs placebo
[7] = Andersen-Gill (I), reduced dataset, vs placebo
[8] = Andersen-Gill (II), full dataset, adjusted for stratification factors, vs placebo
[9] = Andersen-Gill (II), full dataset, vs placebo
[10] = Andersen-Gill (II), reduced dataset, adjusted for stratification factors, vs placebo
[11] = Andersen-Gill (II), reduced dataset, vs placebo
[12] = Wei-Lin-Weissfeld model (Li and Lagakos)
[13] = modified WLW, full dataset, adjusted for stratification factors, vs placebo
[14] = modified WLW, full dataset, vs placebo
[15] = negative binomial, full dataset, adjusted for stratification factors, vs placebo
[16] = negative binomial, full dataset, vs placebo
[17] = negative binomial, reduced dataset, adjusted for stratification factors, vs placebo
[18] = negative binomial, reduced dataset, vs placebo
[19] = number of events, icosapent ethyl arm N = 4089, full dataset
[20] = number of events, after reduction
[21] = number of events, multiple endpoints in a single calendar day handled as a single event
[22] = share of overall events in the category, after reduction

Q: Which results are given for `CC/C=C\C/C=C\C/C=C\C/C=C\C/C=C\CCCC(=O)OCC` [Icosapent Ethyl, eicosapentaenoic acid ethyl ester]?
A: Adjusted HR, key secondary composite endpoint [1, 4]: 0.71; Adjusted HR, primary composite endpoint [1, 4]: 0.68; Unadjusted HR, key secondary composite endpoint [1, 5]: 0.71; Unadjusted HR, primary composite endpoint [1, 5]: 0.68; Adjusted HR, total key secondary composite endpoint events [1, 6]: 0.72; Adjusted HR, total primary composite endpoint events [1, 6]: 0.69; Unadjusted HR, total key secondary composite endpoint events [1, 7]: 0.72; Unadjusted HR, total primary composite endpoint events [1, 7]: 0.69; Adjusted HR, key secondary composite endpoint [1, 8]: 0.71; Adjusted HR, primary composite endpoint [1, 8]: 0.68; Unadjusted HR, key secondary composite endpoint [1, 9]: 0.71; Unadjusted HR, primary composite endpoint [1, 9]: 0.68; Adjusted HR, total key secondary composite endpoint events [1, 10]: 0.72; Adjusted HR, total primary composite endpoint events [1, 10]: 0.69; Unadjusted HR, total key secondary composite endpoint events [1, 11]: 0.72; Unadjusted HR, total primary composite endpoint events [1, 11]: 0.69; Cardiovascular deaths prevented per 1000 patients treated for five years ([1]; FIG. 38): 12; Coronary revascularizations prevented per 1000 patients treated for five years ([1]; FIG. 38): 76; Episodes of hospitalization for unstable angina prevented per 1000 patients treated for five years ([1]; FIG. 38): 16; Myocardial infarctions prevented per 1000 patients treated for five years ([1]; FIG. 38): 42; Strokes prevented per 1000 patients treated for five years ([1]; FIG. 38): 14; First occurrence of primary composite endpoint: HR vs placebo [1, 12]: 0.75; Second occurrence of primary composite endpoint: HR vs placebo [1, 12]: 0.68; First events reduced by ([1]; in vivo): 25%; Fourth or more events reduced by ([1]; in vivo): 48%; Relative risk reduction in total (first and subsequent) ischemic events for the primary composite endpoint ([1]; in vivo): 30%; Second events reduced by ([1]; in vivo): 32%; Third events reduced by ([1]; in vivo): 31%; Adjusted HR, key secondary composite endpoint, first event [1, 13]: 0.74; Adjusted HR, key secondary composite endpoint, second event [1, 13]: 0.75; Adjusted HR, key secondary composite endpoint, third event [1, 13]: 0.79; Adjusted HR, primary composite endpoint, first event [1, 13]: 0.75; Adjusted HR, primary composite endpoint, second event [1, 13]: 0.68; Adjusted HR, primary composite endpoint, third event [1, 13]: 0.70; Unadjusted HR, key secondary composite endpoint, first event [1, 14]: 0.74; Unadjusted HR, key secondary composite endpoint, second event [1, 14]: 0.75; Unadjusted HR, key secondary composite endpoint, third event [1, 14]: 0.79; Unadjusted HR, primary composite endpoint, first event [1, 14]: 0.76; Unadjusted HR, primary composite endpoint, second event [1, 14]: 0.69; Unadjusted HR, primary composite endpoint, third event [1, 14]: 0.70; Total key secondary endpoint events: rate ratio (RR) vs placebo ([1]; negative binomial model): 0.72; Total primary endpoint events: rate ratio (RR) vs placebo ([1]; negative binomial model): 0.70; Adjusted RR, key secondary composite endpoint [1, 15]: 0.71; Adjusted RR, primary composite endpoint [1, 15]: 0.69; Unadjusted RR, key secondary composite endpoint [1, 16]: 0.71; Unadjusted RR, primary composite endpoint [1, 16]: 0.67; Adjusted RR, total key secondary composite endpoint events [1, 17]: 0.72; Adjusted RR, total primary composite endpoint events [1, 17]: 0.70; Unadjusted RR, total key secondary composite endpoint events [1, 18]: 0.71; Unadjusted RR, total primary composite endpoint events [1, 18]: 0.68; Total events before reduction, key secondary endpoint [1, 19]: 590 n; Total events before reduction, primary endpoint [1, 19]: 1185 n; Fatal events, key secondary endpoint [1, 20]: 174 n; Fatal events, primary endpoint [1, 20]: 174 n; Non-fatal events, key secondary endpoint [1, 20]: 384 n; Non-fatal events, primary endpoint [1, 20]: 902 n; Total events after reduction, key secondary endpoint [1, 21]: 558 n; Total events after reduction, primary endpoint [1, 21]: 1076 n; Fatal events, key secondary endpoint [1, 22]: 45.0%; Fatal events, primary endpoint [1, 22]: 45.0%; Total events after reduction, primary endpoint [1, 22]: 41.0%; Total events before reduction, key secondary endpoint ([1]; share of overall events in the category, icosapent ethyl arm N = 4089): 42.0%; TEAE Upper respiratory tract infection ([2]; human): 312 (7.6%) n (%); TEAE Urinary tract infection ([2]; human): 253 (6.2%) n (%); Fatal bleeding events [2]: no fatal bleeding events; Average placebo-corrected reduction from baseline in diastolic blood pressure [3]: 0.5 mm Hg; Average placebo-corrected reduction from baseline in systolic blood pressure [3]: 1.3 mm Hg
